Each molecule was assayed against CDK2 (human) (UniProt P24941) (assay: Enzyme Assay).

Row | Structure (SMILES) | IC50 [µM]
1 | COC(=O)[C@H](Cc1ccc(O)cc1)NC(=O)c1cc(C(=O)O)c2cc(-c3cc(C)cc(C)c3)ccc2n1 | ≤ 1
2 | COC(=O)[C@H](Cc1ccc(O)cc1)NC(=O)c1cc(C(=O)O)c2cc(CCc3ccc(Cl)cc3)ccc2n1 | ≤ 1
3 | COC(=O)[C@H](Cc1ccc(O)cc1)NC(=O)c1cc(C(=O)O)c2cc(-c3cccc(C#N)c3)ccc2n1 | ≤ 1
4 | COC(=O)[C@H](Cc1ccc(O)cc1)NC(=O)c1cc(C(=O)O)c2cc(-c3cc4ccccc4s3)ccc2n1 | ≤ 1
5 | COC(=O)[C@H](Cc1ccc(O)cc1)NC(=O)c1cc(C(=O)O)c2cc(-c3cccc(C)c3)ccc2n1 | ≤ 1
6 | COC[C@H](Cc1ccc(O)cc1)NC(=O)c1cc(-c2nnn[nH]2)c2cc(-c3cccc(C(F)(F)F)c3)ccc2n1 | ≤ 1
7 | COC(=O)[C@H](Cc1ccc(O)cc1)NC(=O)c1cc(C(=O)O)c2cc(CCc3ccc(F)cc3)ccc2n1 | ≤ 1
8 | COC(=O)[C@H](Cc1ccc(O)cc1)NC(=O)c1cc(C(=O)O)c2cc(-c3ccc(Cl)c(Cl)c3)ccc2n1 | ≤ 1
9 | COC[C@H](Cc1ccc(O)cc1)NC(=O)c1cc(C(=O)O)c2cc(-c3cccc(C(F)(F)F)c3)ccc2n1 | ≤ 1
10 | CNC(=O)[C@H](Cc1ccc(O)cc1)NC(=O)c1cc(C(=O)O)c2cc(C=Cc3ccc(Cl)cc3)ccc2n1 | ≤ 1
11 | COC(=O)[C@H](Cc1ccc(O)cc1)NC(=O)c1cc(C(=O)O)c2cc(-c3ccc(C)c([N+](=O)[O-])c3)ccc2n1 | ≤ 1
12 | CCCCCC#Cc1ccc2nc(C(=O)N[C@H](COC)Cc3ccc(O)cc3)cc(C(=O)O)c2c1 | ≤ 1
13 | COC(=O)[C@H](Cc1ccc(O)cc1)NC(=O)c1cc(C(=O)O)c2cc(-c3ccc(C(C)C)cc3)ccc2n1 | ≤ 1
14 | COC(=O)[C@H](Cc1ccc(O)cc1)NC(=O)c1cc(C(=O)O)c2cc(-c3ccccc3)ccc2n1 | ≤ 1
15 | COC(=O)[C@H](Cc1ccc(O)cc1)NC(=O)c1cc(C(=O)O)c2cc(-c3cccs3)ccc2n1 | ≤ 1
16 | CN(C)C(=O)[C@H](Cc1ccc(O)cc1)NC(=O)c1cc(C(=O)O)c2cc(C=Cc3ccc(Cl)cc3)ccc2n1 | ≤ 1
17 | O=C(NC(Cc1ccc(O)cc1)C1CCCCC1)c1cc(C(=O)O)c2cc(-c3cccc(C(F)(F)F)c3)ccc2n1 (stereo not given) | ≤ 1
18 | COC[C@H](Cc1ccc(O)cc1)NC(=O)c1cc(NS(=O)(=O)C(C)(C)C)c2cc(-c3cccc(COc4ccccn4)c3)ccc2n1 | ≤ 1
19 | COC(=O)[C@H](Cc1ccc(O)cc1)NC(=O)c1cc(C(=O)O)c2cc(-c3cccc([N+](=O)[O-])c3)ccc2n1 | ≤ 1
20 | COC[C@H](Cc1ccc(O)cc1)NC(=O)c2cc(C(=O)O)c3cc(ccc3n2)c4cccc(CN5=CC(=CC=C5)O)c4 | ≤ 1
21 | CCCC(Cc1ccc(O)cc1)NC(=O)c1cc(C(=O)O)c2cc(-c3cccc(C(F)(F)F)c3)ccc2n1 (stereo not given) | ≤ 1
22 | COC[C@H](Cc1ccc(O)cc1)NC(=O)c1cc(C(=O)O)c2cc(OCc3ccc(C(F)(F)F)cc3)ccc2n1 | ≤ 1
23 | COC(=O)[C@H](Cc1ccc(O)cc1)NC(=O)c1cc(C(=O)O)c2cc(-c3ccc(Oc4ccccc4)cc3)ccc2n1 | ≤ 1
24 | COC(=O)[C@H](Cc1ccc(O)cc1)NC(=O)c1cc(C(=O)O)c2cc(CCc3ccccc3)ccc2n1 | ≤ 1
25 | COC[C@H](Cc1ccc(O)cc1)NC(=O)c1cc(C(=O)O)c2cc(-c3cccc(Cn4ccccc4=O)c3)ccc2n1 | ≤ 1

Further lines, results first:

Row | IC50 [µM] | Structure (SMILES)
26 | ≤ 1 | COC(=O)[C@H](Cc1ccc(O)cc1)NC(=O)c1cc(C(=O)O)c2cc(-c3ccc(OC(F)(F)F)cc3)ccc2n1
27 | ≤ 1 | COC(=O)[C@H](Cc1ccc(O)cc1)NC(=O)c1cc(C(=O)O)c2cc(-c3ccc(C)s3)ccc2n1
28 | ≤ 1 | COC(=O)[C@H](Cc1ccc(O)cc1)NC(=O)c1cc(C(=O)O)c2cc(C=Cc3ccc(F)cc3)ccc2n1
29 | ≤ 1 | COC(=O)[C@H](Cc1ccc(O)cc1)NC(=O)c1cc(C(=O)O)c2cc(C=CC(C)(C)C)ccc2n1
30 | ≤ 1 | COC(=O)[C@H](Cc1ccc(O)cc1)NC(=O)c1cc(C(=O)O)c2cc(CCC(C)(C)C)ccc2n1
31 | ≤ 1 | COC(=O)[C@H](Cc1ccc(O)cc1)NC(=O)c1cc(NS(C)(=O)=O)c2cc(-c3cccc(C(F)(F)F)c3)ccc2n1
32 | ≤ 1 | COC(=O)[C@H](Cc1ccc(O)cc1)NC(=O)c1cc(C(=O)O)c2cc(C=Cc3ccc(Cl)cc3)ccc2n1
33 | ≤ 1 | COC(=O)[C@H](Cc1ccc(O)cc1)NC(=O)c1cc(C(=O)O)c2cc(-c3cccc(C(C)C)c3)ccc2n1
34 | ≤ 1 | O=C(N[C@@H](Cc1ccc(O)cc1)c1ncc[nH]1)c1cc(C(=O)O)c2cc(-c3cccc(C(F)(F)F)c3)ccc2n1
35 | ≤ 1 | COC(=O)[C@H](Cc1ccc(O)cc1)NC(=O)c1cc(C(=O)O)c2cc(-c3ccc(Cl)cc3)ccc2n1
36 | ≤ 1 | COC(=O)[C@H](Cc1ccc(O)cc1)NC(=O)c1cc(C(=O)O)c2cc(-c3ccc(OC)cc3)ccc2n1
37 | ≤ 1 | Cc1cnc([C@H](Cc2ccc(O)cc2)NCc2cc(C(=O)O)c3cc(-c4cccc(C(F)(F)F)c4)ccc3n2)o1
38 | ≤ 1 | COC[C@H](Cc1ccc(O)cc1)NC(=O)c1cc(S(=O)(=O)O)c2cc(-c3cccc(C(F)(F)F)c3)ccc2n1
39 | ≤ 1 | COC(=O)[C@H](Cc1ccc(O)cc1)NC(=O)c1cc(C(=O)O)c2cc(-c3cc4ccccc4o3)ccc2n1
40 | ≤ 1 | CON=C[C@H](Cc1ccc(O)cc1)NC(=O)c1cc(C(=O)O)c2cc(-c3cccc(C(F)(F)F)c3)ccc2n1
41 | ≤ 1 | CCCCCCc1ccc2nc(C(=O)N[C@@H](Cc3ccc(O)cc3)C(=O)OC)cc(C(=O)O)c2c1
42 | ≤ 1 | COC[C@H](Cc1ccc(O)cc1)NC(=O)c1cc(C(=O)O)c2cc(C=Cc3ccc(Cl)cc3)ccc2n1
43 | ≤ 1 | COC(=O)[C@H](Cc1ccc(O)cc1)NC(=O)c1cc(C(=O)O)c2cc(-c3ccc(F)c(C)c3)ccc2n1
44 | ≤ 1 | O=C(N[C@@H](Cc1ccc(O)cc1)C(=O)NC1CC1)c1cc(C(=O)O)c2cc(C=Cc3ccc(Cl)cc3)ccc2n1
45 | ≤ 1 | CCCCCC=Cc1ccc2nc(C(=O)N[C@H](COC)Cc3ccc(O)cc3)cc(C(=O)O)c2c1
46 | ≤ 1 | COC(=O)[C@H](Cc1ccc(O)cc1)NC(=O)c1cc(C(=O)O)c2cc(-c3cc(Cl)cc(Cl)c3)ccc2n1
47 | ≤ 1 | COC(=O)[C@H](Cc1ccc(O)cc1)NC(=O)c1cc(C(=O)O)c2cc(-c3ccc(F)c(Cl)c3)ccc2n1
48 | ≤ 1 | COC(=O)[C@H](Cc1ccc(O)cc1)NC(=O)c1cc(C(=O)O)c2cc(-c3cccc(-c4ccccc4)c3)ccc2n1
49 | ≤ 1 | COC(=O)[C@H](Cc1ccc(O)cc1)NC(=O)c1cc(C(=O)O)c2cc(CCc3ccc(C(F)(F)F)cc3)ccc2n1
50 | ≤ 1 | CCCCCCCc1ccc2nc(C(=O)N[C@H](COC)Cc3ccc(O)cc3)cc(C(=O)O)c2c1

— the Kinase Knowledgebase extract (Sharma et al. 2016)
